{"source": "patent US11116741B2", "about": "“Method for the treatment of valvular heart disease comprising administering a composition comprising sarpogrelate” (CEVA SANTE ANIMALE, priority 2017, dated 2021)", "key": {"mitral valve leaflet": {"test_system": "mitral valve leaflet", "assay": "Histological morphometric analysis of mitral valve (thickness, cellularity) in NdF induced mitral remodeling", "format": "in vivo, mice", "experimental": "(§1) These lesions appear as endothelial cells recruitment and migration into the valvular leaflets with intense production of extracellular matrix.\n(§2) Before the start of the experiment, baseline systolic blood pressure, heart rate and body weight were measured. […] The dose of sarpogrelate administered was 2 mg/kg/day. The experiment started two days after the subcutaneous implantation so as to allow the activation of the mini-osmotic pump. Systolic blood pressure, heart rate and body weight were measured each week until the end of the experiment. At the term (day 28), urinary samples were collected from mice to determine 5-hydroxy-indol acetic acid concentration (5-HIAA which is a serotonin metabolite).\nFor morphometric analysis, one sagittal section (5 μm in thickness) is obtained after paraffin embedding and stained with hematoxylin and eosin stain. In each section, mitral valves are examined and cellularization counted. Extreme care is taken in sectioning the heart so that the valves are mainly cut transversely (with the attachment sides of the leaflets visible on both ends of the valve).\nValve histological morphometric analysis is performed visually using a microscope (Leica DM750®, Germany) with a 40× calibrated objective connected to a camera and a data acquisition and analysis system (Leica/Microsystems®LAS V4.8) by a single operator. Practically, on each section, the operator applies a large square of 250 μm×250 μm divided in 100 equal parts of 25 μm×25 μm each. For the quantification, the whole mitral valve leaflet section is divided in three equal parts. The proximal region is the one nearest the base cusp, followed by the medial and the distal regions. The proximal, medial and distal parts thicknesses are measured on three distinct sites in each region. The mean result is expressed in μm, in table 8.\nThe density of endothelial cells is evaluated in proximal, medial and distal regions. The numbers of cells is determined on a leaflet length of 25×4 μm (100 μm2). The result (mean) is expressed in number of cells per 100 μm2."}, "[1]": {"assay": "Body weight, food intake, water intake, systolic blood pressure and heart rate in the NdF mouse model", "format": "in vivo, mice", "details": "for Water intake: estimation of the water intake per cage per day: g = ml", "experimental": "as §2"}, "[2]": {"assay": "Blood 5-HT and urine 5-HIAA concentrations in mice given NdF by mini-osmotic pump", "format": "in vivo", "experimental": "as §1, §2\nThen, mice were euthanized using an injection of a […] dose of pentobarbital followed by an intra-cardiac blood puncture and whole blood serotonin concentration was determined.\nAll plasma was collected and analyzed in a single run."}, "[3]": {"biological_target": "5-HT2A receptor compared to the 5-HT2B one (Homo sapiens, UniProt P28223)", "sequence (P28223 whole entry)": "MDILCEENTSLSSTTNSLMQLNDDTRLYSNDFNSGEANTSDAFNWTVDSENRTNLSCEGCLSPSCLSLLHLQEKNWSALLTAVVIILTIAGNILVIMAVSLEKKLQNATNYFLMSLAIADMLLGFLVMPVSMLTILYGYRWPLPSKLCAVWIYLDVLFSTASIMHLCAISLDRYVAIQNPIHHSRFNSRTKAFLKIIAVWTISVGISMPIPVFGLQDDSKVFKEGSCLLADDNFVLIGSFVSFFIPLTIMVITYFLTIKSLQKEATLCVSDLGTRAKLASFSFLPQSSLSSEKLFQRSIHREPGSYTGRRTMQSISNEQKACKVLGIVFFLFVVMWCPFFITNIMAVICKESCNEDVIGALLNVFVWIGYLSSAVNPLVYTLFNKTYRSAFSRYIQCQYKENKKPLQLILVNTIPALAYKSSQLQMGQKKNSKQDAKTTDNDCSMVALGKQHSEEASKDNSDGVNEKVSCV", "details": "in words; Life Sci. 73, 193-207; cited from earlier work"}}, "note": "“Also recorded” adds a separate entry of the source.", "data": [{"smiles": "C[C@H](N)Cc1cccc(C(F)(F)F)c1", "note": "[NdF, nordexfenfluramine]", "values": [{"measurement": "Mitral valve thickness (mean)", "setting": "mitral valve leaflet; day 28, mean of proximal, medial and distal parts, NdF 1 mg/kg/day, sarpogrelate 2 mg/kg/day", "result": 67.467, "unit": "μm"}, {"measurement": "Endothelial cellularity (mean)", "setting": "mitral valve leaflet; day 28, mitral valve", "result": 9.988, "unit": "cells/0.01 mm^2"}, {"measurement": "Interstitial cellularity (mean)", "setting": "mitral valve leaflet; day 28, mitral valve", "result": 22.011, "unit": "cells/0.01 mm^2"}, {"measurement": "Effect on mitral valve thickness", "setting": "mitral valve leaflet; in words", "result": "massive increase"}, {"measurement": "Effect on valve interstitial cellularity", "setting": "mitral valve leaflet; in words", "result": "increase"}, {"measurement": "Body weight", "setting": "[1]; Week 0 (baseline)", "result": 25.10, "unit": "g"}, {"measurement": "Heart rate", "setting": "[1]; Week 0 (baseline)", "result": 539.7, "unit": "beats/min"}, {"measurement": "Systolic blood pressure", "setting": "[1]; Week 0 (baseline)", "result": 100.2, "unit": "mmHg"}, {"measurement": "Body weight", "setting": "[1]; Week 1", "result": 26.20, "unit": "g"}, {"measurement": "Food intake: estimation of the food intake for each mouse per week", "setting": "[1]; Week 1", "result": 32.83, "unit": "g"}, {"measurement": "Heart rate", "setting": "[1]; Week 1", "result": 579.5, "unit": "beats/min"}, {"measurement": "Systolic blood pressure", "setting": "[1]; Week 1", "result": 108.9, "unit": "mmHg"}, {"measurement": "Water intake: estimation of the water intake per cage per day", "setting": "[1]; Week 1", "result": 31.43, "unit": "g"}, {"measurement": "Food intake: estimation of the food intake for each mouse per week", "setting": "[1]; Week 2", "result": 30.71, "unit": "g"}, {"measurement": "Heart rate", "setting": "[1]; Week 2", "result": 571.8, "unit": "beats/min"}, {"measurement": "Systolic blood pressure", "setting": "[1]; Week 2", "result": 97.5, "unit": "mmHg"}, {"measurement": "Water intake: estimation of the water intake per cage per day", "setting": "[1]; Week 2", "result": 31.86, "unit": "g"}, {"measurement": "Body weight", "setting": "[1]; Week 3", "result": 27.20, "unit": "g"}, {"measurement": "Food intake: estimation of the food intake for each mouse per week", "setting": "[1]; Week 3", "result": 35.13, "unit": "g"}, {"measurement": "Heart rate", "setting": "[1]; Week 3", "result": 498.0, "unit": "beats/min"}, {"measurement": "Water intake: estimation of the water intake per cage per day", "setting": "[1]; Week 3", "result": 32.14, "unit": "g"}, {"measurement": "Body weight", "setting": "[1]; Week 4", "result": 26.50, "unit": "g"}, {"measurement": "Food intake: estimation of the food intake for each mouse per week", "setting": "[1]; Week 4", "result": 26.38, "unit": "g"}, {"measurement": "Heart rate", "setting": "[1]; Week 4", "result": 559.3, "unit": "beats/min"}, {"measurement": "Systolic blood pressure", "setting": "[1]; Week 4", "result": 99.5, "unit": "mmHg"}, {"measurement": "Water intake: estimation of the water intake per cage per day", "setting": "[1]; Week 4", "result": 33.07, "unit": "g"}, {"measurement": "Effect on total blood (plasma) concentration of serotonin (5-HT)", "setting": "[2]; in words", "result": "increases"}, {"measurement": "5-HIAA", "setting": "[2]; urine, day 28, mean, NdF 1 mg/kg/day, sarpogrelate 2 mg/kg/day", "result": 10.62, "unit": "mg/L"}, {"measurement": "5-HT", "setting": "[2]; whole blood, day 28, mean, NdF 1 mg/kg/day, sarpogrelate 2 mg/kg/day", "result": 2259.78, "unit": "µg/L"}]}, {"smiles": "COc1cccc(CCc2ccccc2OCC(CN(C)C)OC(=O)CCC(=O)O)c1", "note": "(centres unmarked) [sarpogrelate]", "values": [{"measurement": "Effect on interstitial migration of endothelial cells", "setting": "mitral valve leaflet; in words", "result": "reduces"}, {"measurement": "Effect on mitral valve thickness", "setting": "mitral valve leaflet; in words", "result": "nearly completely prevented; also recorded: markedly reduces"}, {"measurement": "Effect on valve interstitial cellularity", "setting": "mitral valve leaflet; in words", "result": "prevents the increase"}, {"measurement": "Receptor subtype preference (5-HT2A vs 5-HT2B)", "setting": "[3]", "result": "preferably blocking the 5-HT2A receptor"}, {"measurement": "Effect on total blood (plasma) concentration of serotonin (5-HT)", "setting": "[2]; in words", "result": "reduces"}, {"measurement": "Effect on urinary 5-HIAA", "setting": "[2]; in words", "result": "reduces"}]}]}
